pIC50: −log10 of the molar value.
How the values were obtained:
[1] = target: TRPV4 (Homo sapiens, UniProt Q9HBA0); experiment: Ion channel assay, agonist and antagonist mode; assay type: biochemical; conditions: up to 100 μM (maximum tested concentration)
Experimental: (§1) In addition, DF2755A was tested on TRPM8, TRPV1, TRPV4, TRPA1, and Nav1.7 ion channels in agonist and antagonist mode at eight concentrations in quadruplicate (100 μM was the highest tested concentration).

[2] = target: Nav1.7 (Homo sapiens, UniProt Q15858); experiment: Ion channel assay, agonist and antagonist mode; assay type: biochemical; conditions: up to 100 μM (maximum tested concentration)
Experimental: as §1

[3] = target: TRPA1 (Homo sapiens, UniProt O75762); experiment: Ion channel assay, agonist and antagonist mode; assay type: biochemical; conditions: up to 100 μM (maximum tested concentration)
Experimental: as §1

[4] = target: TRPM8 (Homo sapiens, UniProt Q7Z2W7); experiment: Ion channel assay, agonist and antagonist mode; assay type: biochemical; conditions: up to 100 μM (maximum tested concentration)
Experimental: as §1

[5] = target: TRPV1 (Homo sapiens, UniProt Q8NER1); experiment: Ion channel assay, agonist and antagonist mode; assay type: biochemical; conditions: up to 100 μM (maximum tested concentration)
Experimental: as §1

[6] = system: CXCR2; set-up: method as in Lopes et al., 2016; conditions: ref Lopes et al., 2016; cited from earlier work
[7] = Routes and rates of excretion after single oral [14C]DF2755A; assay type: in vivo; conditions: single oral 20 mg/kg, female SD rats
Experimental: Prior to administration and for acclimatization, animals (n = 6) were transferred to individual metabolic cages and were left therein for the duration of the study except for a short period during dosing. The metabolic cages were specifically designed for the separate collection of urine and feces. The preparation of dose formulation was performed on the day of experiment. The test item was dissolved in the appropriate volume of saline solution (NaCl, 0.9% w v^−1) to achieve the dose volume of 5 ml kg^−1. The resulting solution was then administered via a gavage fed down the esophagus to enable the formulation to be dispensed directly into the stomach.
Radioactivity was extracted from the selected feces and urine homogenate pools with appropriate solvents based on methodology developed at Quotient (Rushden) Ltd. and analyzed by quantitative radioactivity analysis (QRA).

[8] = system: TRPV1; experiment: TRPV1 protein level in F11 cells (Western blotting); assay type: cell-based; conditions: DF2755A 1 µM + CYP 100 nM
Text: (§2) For these experiments, cells at 18th passage were used.
(§3) Triplicate samples were run for each gene.
Control and treated F11 cells were collected and lysed in an ice-cold RIPA buffer containing protease and phosphatase inhibitor cocktail (Sigma-Aldrich, United States). The extracted proteins were quantified using BCA assay (Thermo, United States). NuPAGE lithium dodecyl sulfate sample buffer (Cat#NP007, Thermo, United States) and NuPAGE sample reducing agent (Cat#NP0004, Thermo, United States) were added to the samples and then put in the Thermoblock (Eppendorf, United Kingdom) at 75°C for 10 min. Protein lysates (30 μg) were separated on NuPAGE bis–tris glycine gradient precast gel (Cat#NP0321PK2, Invitrogen, United States) and electroblotted on a PVDF membrane (Cat#IPVH00010, Millipore, United States) using a semi-dry system (Thermo, United States). Non-specific binding sites were blocked by blocking solution (Cat#000105, Invitrogen, United States) for 15 min at RT. […] The relative densities of the immunoreactive bands were determined and normalized with respect to actin, using Fiji software. […]

[9] = system: panel of GPCRs, enzymes, ion channels, transporters, and nuclear receptors; experiment: Safety screen off-target panel (Eurofins Cerep SafetyScreen44); assay type: binding; conditions: tested at 10 μM; all the receptors studied
Experimental: Selectivity assays were performed at Eurofins Cerep as a contract service. A summary of the protocol and the reference for the assays are listed on the Eurofins Cerep website at (https://www.eurofinsdiscoveryservices.com/catalogmanagement/viewItem/SafetyScreen44-Panel-Cerep/P270). The tested targets are listed below:
GPCRs: A2A (agonist radioligand), α1A (antagonist radioligand), α2A (antagonist radioligand), β1 (agonist radioligand), β2 (agonist radioligand), BK1 (antagonist and agonist radioligand), BK2 (antagonist and agonist radioligand), CB1 (antagonist and agonist radioligand), CB2 (antagonist and agonist radioligand), CCK1 (CCKA) (agonist radioligand), D1 (antagonist radioligand), D2 (antagonist and agonist radioligand), D3 (antagonist and agonist radioligand), ETA (agonist radioligand), H1 (antagonist radioligand), H2 (antagonist radioligand), M1 (antagonist radioligand), M2 (antagonist and agonist radioligand), M3 (antagonist radioligand), NK1 (agonist radioligand), δ (DOP) (agonist radioligand), κ(KOP) (agonist radioligand), µ(MOP) (agonist radioligand), ORL1 (agonist radioligand), 5-HT1A (agonist radioligand), 5-HT1B (antagonist radioligand), 5-HT2A (agonist radioligand), 5-HT2B (agonist radioligand), and V1a (agonist radioligand). […]

[10] = system: CXCL1; experiment: CXCL1 mRNA expression in F11 cells (RT PCR); assay type: cell-based; conditions: DF2755A 1 µM + CYP 100 nM
Text: as §2, §3

[11] = Tissue distribution by quantitative whole-body autoradiography; assay type: in vivo, female SD rats; conditions: at tmax (2 h after dosing), oral 20 mg/kg
Experimental: Tissue distribution was performed by quantitative whole-body autoradiography (QWBA). At the selected time points (2, 6, 12, 24, 48, 120, and 168 h post-oral administration of the compound), animals (n = 6) were killed using an overdose of carbon dioxide, followed by immediate snap freezing in a hexane/solid carbon dioxide mixture. Each carcass was subjected to WBA using procedures based on the work of [Waddell and Brinkhous (1967)]. Sections were taken at up to six different levels of the rat body to include as many tissues as possible (a minimum of 30). Distribution of radioactivity in the sections was determined and quantified by bioimage analysis.

Chain of TRPV1 (Homo sapiens, UniProt Q8NER1) (Q8NER1 whole entry, species assumed): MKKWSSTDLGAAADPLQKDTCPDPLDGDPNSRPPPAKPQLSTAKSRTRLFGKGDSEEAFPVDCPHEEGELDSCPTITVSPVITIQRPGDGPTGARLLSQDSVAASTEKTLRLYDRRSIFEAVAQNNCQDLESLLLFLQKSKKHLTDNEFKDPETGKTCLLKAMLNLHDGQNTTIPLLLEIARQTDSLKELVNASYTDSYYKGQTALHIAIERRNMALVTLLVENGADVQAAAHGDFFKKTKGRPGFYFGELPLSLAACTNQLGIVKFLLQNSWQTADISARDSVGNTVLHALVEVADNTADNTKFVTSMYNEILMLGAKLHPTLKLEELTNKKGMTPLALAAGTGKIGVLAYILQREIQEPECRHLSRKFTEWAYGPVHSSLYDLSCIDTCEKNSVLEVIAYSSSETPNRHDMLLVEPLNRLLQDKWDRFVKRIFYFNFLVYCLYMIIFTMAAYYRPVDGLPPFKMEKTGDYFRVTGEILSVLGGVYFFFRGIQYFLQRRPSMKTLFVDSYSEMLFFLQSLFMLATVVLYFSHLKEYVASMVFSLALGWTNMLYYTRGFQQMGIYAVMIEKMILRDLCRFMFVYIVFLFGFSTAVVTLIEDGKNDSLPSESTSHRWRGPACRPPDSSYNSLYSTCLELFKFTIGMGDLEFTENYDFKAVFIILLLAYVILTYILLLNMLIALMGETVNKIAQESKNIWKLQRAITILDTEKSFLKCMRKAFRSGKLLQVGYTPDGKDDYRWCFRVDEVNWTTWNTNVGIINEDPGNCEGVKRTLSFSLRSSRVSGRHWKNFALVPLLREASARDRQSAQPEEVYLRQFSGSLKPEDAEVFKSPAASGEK
Chain of TRPM8 (Q7Z2W7 whole entry, species assumed): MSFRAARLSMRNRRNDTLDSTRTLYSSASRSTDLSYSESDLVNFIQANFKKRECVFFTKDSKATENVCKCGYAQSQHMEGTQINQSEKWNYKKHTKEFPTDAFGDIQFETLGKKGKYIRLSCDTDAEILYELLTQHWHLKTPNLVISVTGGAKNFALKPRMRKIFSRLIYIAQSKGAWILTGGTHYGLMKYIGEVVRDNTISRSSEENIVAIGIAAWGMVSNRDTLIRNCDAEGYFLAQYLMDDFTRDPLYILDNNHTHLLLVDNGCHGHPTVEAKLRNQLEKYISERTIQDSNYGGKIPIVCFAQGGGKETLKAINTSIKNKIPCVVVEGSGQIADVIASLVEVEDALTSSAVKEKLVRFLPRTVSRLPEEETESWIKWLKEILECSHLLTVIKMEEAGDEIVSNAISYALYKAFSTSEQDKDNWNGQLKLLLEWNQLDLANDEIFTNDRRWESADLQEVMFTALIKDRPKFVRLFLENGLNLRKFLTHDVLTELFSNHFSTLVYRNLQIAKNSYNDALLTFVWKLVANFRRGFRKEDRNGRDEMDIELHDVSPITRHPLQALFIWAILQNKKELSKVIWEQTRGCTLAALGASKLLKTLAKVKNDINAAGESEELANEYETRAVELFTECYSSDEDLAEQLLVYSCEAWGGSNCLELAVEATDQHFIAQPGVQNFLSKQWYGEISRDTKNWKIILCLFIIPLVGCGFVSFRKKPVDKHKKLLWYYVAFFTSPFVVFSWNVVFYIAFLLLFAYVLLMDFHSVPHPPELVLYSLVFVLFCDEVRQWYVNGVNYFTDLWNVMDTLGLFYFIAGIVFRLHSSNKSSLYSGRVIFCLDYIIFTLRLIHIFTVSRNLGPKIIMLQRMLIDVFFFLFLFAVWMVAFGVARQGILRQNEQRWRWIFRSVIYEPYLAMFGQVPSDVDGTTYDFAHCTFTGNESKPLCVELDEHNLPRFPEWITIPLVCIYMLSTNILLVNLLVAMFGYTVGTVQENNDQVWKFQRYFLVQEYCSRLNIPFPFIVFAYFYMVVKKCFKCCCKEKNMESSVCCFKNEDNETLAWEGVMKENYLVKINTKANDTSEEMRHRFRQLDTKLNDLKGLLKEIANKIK
Chain of TRPV4 (Q9HBA0 whole entry, species assumed): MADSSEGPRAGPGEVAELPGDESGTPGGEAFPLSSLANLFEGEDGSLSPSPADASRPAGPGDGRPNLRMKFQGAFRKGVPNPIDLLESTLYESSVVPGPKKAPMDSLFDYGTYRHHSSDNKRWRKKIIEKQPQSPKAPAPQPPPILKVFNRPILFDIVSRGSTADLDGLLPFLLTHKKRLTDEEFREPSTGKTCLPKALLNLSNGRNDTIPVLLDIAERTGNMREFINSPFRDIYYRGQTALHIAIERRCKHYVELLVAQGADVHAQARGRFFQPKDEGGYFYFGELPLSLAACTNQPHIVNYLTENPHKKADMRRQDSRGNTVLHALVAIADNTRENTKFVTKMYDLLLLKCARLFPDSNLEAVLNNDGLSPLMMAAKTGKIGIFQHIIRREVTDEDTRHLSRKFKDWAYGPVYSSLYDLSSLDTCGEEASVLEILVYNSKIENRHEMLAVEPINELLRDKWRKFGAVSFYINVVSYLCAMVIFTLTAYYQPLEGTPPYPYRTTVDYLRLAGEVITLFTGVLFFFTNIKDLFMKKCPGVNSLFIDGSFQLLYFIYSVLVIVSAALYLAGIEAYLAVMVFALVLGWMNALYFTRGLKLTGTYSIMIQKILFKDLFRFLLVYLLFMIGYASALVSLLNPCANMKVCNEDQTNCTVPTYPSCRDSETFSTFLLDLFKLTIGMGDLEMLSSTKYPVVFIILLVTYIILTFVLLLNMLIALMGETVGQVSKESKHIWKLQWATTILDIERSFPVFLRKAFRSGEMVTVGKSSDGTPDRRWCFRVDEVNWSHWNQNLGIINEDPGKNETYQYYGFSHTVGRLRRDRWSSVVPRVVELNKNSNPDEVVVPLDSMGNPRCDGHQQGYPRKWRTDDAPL
Chain of TRPA1 (O75762 whole entry, species assumed): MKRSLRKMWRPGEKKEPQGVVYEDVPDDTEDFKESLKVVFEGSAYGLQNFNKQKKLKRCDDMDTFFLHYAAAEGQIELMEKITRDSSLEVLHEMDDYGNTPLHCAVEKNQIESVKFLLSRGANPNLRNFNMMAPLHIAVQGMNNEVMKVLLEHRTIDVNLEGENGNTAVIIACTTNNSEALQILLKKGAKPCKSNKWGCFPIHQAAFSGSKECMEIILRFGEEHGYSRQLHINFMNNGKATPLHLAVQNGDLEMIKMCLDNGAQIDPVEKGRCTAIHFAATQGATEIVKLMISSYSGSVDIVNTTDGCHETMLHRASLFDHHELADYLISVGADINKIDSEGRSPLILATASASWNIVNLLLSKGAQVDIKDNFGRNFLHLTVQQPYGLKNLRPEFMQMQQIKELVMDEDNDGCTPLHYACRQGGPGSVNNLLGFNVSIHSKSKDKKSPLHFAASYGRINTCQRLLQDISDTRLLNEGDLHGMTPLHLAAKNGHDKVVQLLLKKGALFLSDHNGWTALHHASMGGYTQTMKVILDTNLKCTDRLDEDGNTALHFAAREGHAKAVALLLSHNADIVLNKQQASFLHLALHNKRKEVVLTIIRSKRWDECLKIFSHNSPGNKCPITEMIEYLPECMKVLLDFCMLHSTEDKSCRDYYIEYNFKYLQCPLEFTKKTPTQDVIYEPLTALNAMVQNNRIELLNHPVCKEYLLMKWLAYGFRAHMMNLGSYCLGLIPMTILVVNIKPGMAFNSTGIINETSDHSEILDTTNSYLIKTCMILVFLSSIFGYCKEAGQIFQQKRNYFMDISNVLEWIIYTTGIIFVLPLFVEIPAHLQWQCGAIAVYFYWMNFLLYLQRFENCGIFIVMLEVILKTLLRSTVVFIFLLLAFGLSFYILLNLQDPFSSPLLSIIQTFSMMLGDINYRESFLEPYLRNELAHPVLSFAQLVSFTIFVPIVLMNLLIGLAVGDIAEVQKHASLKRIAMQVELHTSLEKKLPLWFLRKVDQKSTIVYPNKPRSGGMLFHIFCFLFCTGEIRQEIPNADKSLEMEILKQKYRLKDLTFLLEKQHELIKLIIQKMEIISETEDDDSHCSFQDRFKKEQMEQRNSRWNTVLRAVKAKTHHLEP

C[C@H](C(=O)[O-])c1ccc(Nc2nc(C(F)(F)F)cs2)cc1.[Na+] [DF2755A, sodium (2S)-2-(4-{[4-(trifluoromethyl)-1,3-thiazol-2-yl]amino}phenyl)propanoate]
activity in agonism and antagonism mode [1]: no activity
activity in agonism and antagonism mode [2]: no activity
activity in agonism and antagonism mode [3]: no activity
activity in agonism and antagonism mode [4]: no activity
activity in agonism and antagonism mode [5]: no activity
pIC50 [6]: 8.68
overall mean recovery of radioactivity ([7]; 0 to 48 h post-dose): 97.67 % of dose
Mean recovery of radioactivity, feces ([7]; 0–168 h): 77.10 % dose
Mean recovery of radioactivity, total ([7]; 0–168 h): 102.06 % dose
Mean recovery of radioactivity, urine ([7]; 0–168 h): 24.13 % dose
TRPV1 protein level in CYP-exposed cells [8]: restored to control expression
off-target effects in the safety screen assay [9]: neglectable effects
CXCL1 mRNA expression in CYP-exposed cells [10]: restored the mRNA expression of all the targets to control values
radioactivity concentration, blood content into the heart [11]: 38.3 μg equivalents DF2755A g^−1 of tissue
radioactivity concentration, kidney as a whole [11]: 29.6 μg equivalents DF2755 A/g^−1 of tissue
radioactivity concentration, kidney cortex [11]: 33.2 μg equivalents DF2755A g^−1 of tissue
radioactivity concentration, liver [11]: 41.7 μg equivalents DF2755A g^−1 of tissue
radioactivity concentration, small intestine contents [11]: 180 μg equivalents DF2755A g^−1 of tissue
radioactivity concentration, stomach contents [11]: 51.8 μg equivalents DF2755A g^−1 of tissue
radioactivity concentration, urinary bladder contents [11]: 63.0 μg DF2755A g^−1 of tissue
radioactivity concentration, urinary bladder wall [11]: 24.3 μg equivalents DF2755A g^−1 of tissue
share of the administered dose in urinary bladder contents [11]: 8%
share of the administered dose in urinary bladder wall [11]: 3%
